Test results: patent publication US20020115642A1, “Beta-lactam antibiotics” (priority 2000, published 2002)
Converted amounts (≈) assume the structure as drawn. Where two headings read alike, the source gives them in different places.

How the values were obtained:
S. epidermidis = test: Susceptibility testing (MIC, modified NCCLS method); format: cell-based, Staphylococcus epidermidis
Protocol: (§1) The NCCLS (National Committee for Clinical Laboratory Standards) method to determine MIC's of antimicrobial compounds was modified for high-throughput screening. All stocks of tested compounds were prepared in either water or in dimethylsulfoxide (DMSO), depending on the solubility. […] Briefly 20 2-fold serial dilutions of testing compounds from the highest concentration were made in a 384-well microtiter plate. Each well was inoculated with testing bacteria in broth to a final concentration of approximately 1-1.5×10^6 cells/ml. Bacterial growth was determined by the increase of optical density at 600 nm using a microplate reader (Tecan SpectraFluor Plus).

M. catarrhalis = test: as above; format: cell-based, Moraxella catarrhalis; settings: M. catarrhalis (4)
Protocol: as §1

K. pneumoniae = test: as above; format: cell-based, Klebsiella pneumoniae; settings: K. pneumoniae (5)
In short: (§2)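 Stocks are made in water or DMSO depending on solubility. Twofold serial dilutions (20 points) from the top concentration are inoculated with bacteria in broth at about 1-1.5×10^6 cells/ml. MIC is taken from OD600-based growth, following an NCCLS method adapted for screening.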

S. pneumoniae = test: as above; format: cell-based, Streptococcus pneumoniae; settings: S. pneumoniae (3)
Protocol: as §1

H. influenzae = test: as above; format: cell-based, Haemophilus influenzae; settings: H. influenzae (4)
Protocol: as §1

Staphylococcus aureus = test: as above; format: cell-based; settings: for MIC: Staphylococcus aureus
In short: as §2

Gram-negative species = test: MIC comparison with reference antibiotics, Gram-negative species; format: cell-based
Protocol: as §1

E. cloacae = test: Susceptibility testing (MIC, modified NCCLS method); format: cell-based, Enterobacter cloacae; settings: E. cloacae (1)
In short: as §2

[1] = system: UDP-glucuronosyltransferase; test: Glucuronidation assay; format: in vitro ADME, human
Protocol: Assays were conducted as outlined in Example 15, using 100 μM Compound (9), triclosan or cephalothin incubated with 100 μg human liver microsome at 37° C. for 1 hour. The reactants were analyzed on TLC plate, and glucuronidated compounds were visualized by MolecularDynamics Storm 820.
Glucuronidation assay was performed based on modified procedure from Bansal and Gessner (1980) Anal. Biochem. 109:321-329. Reactions were performed in 50 mM Tris buffer, pH 7.6, containing 10 mM MgCl2, ImM UDPGA, 0.04 μCi of ^14C-UDPGA, 0.1 mM substrate, and 100 μg human liver microsome. The final volume was 100 μL. Reactions were incubated at 37° C. for one hour and the reactants extracted with 200 μL of 100% ethanol. The protein was removed by centrifugation at 12,000×g for 5 minutes in an Eppendorf centrifuige. The supernatant was dried and resuspended in 30 μL of 100% methanol and spotted on a Whatman glass-backed linear k TLC plate. Chromatography was performed in a mixture of 1-butanol/acetone/acetic acid/water (35:35:10:20). The TLC plate was then dried and exposed to phosphor imager overnight, then monitored by imaging (MolecularDynamics Storm 820).

E. coli C(Tem3 1-27) = test: Inhibition of bacterial growth (IC50, OD600); format: cell-based; settings: for IC50: Escherichia coli
Protocol: (§3) Compounds of the invention were tested for their ability to inhibit the growth of β-lactam sensitive and resistant bacteria by contacting samples of such cells with various dilutions of the compositions, incubating the cells at 37° C. in the presence of these compositions and then measuring the number of viable cells present in each sample.
(§4) Two compounds of the invention were tested, Compound (9) and Compound (1l). Incubation of bacterial cells was performed for two time periods, 10 hours and 20 hours. Four E. coli strains were used for the test. These strains were all derived from the strain NovaBlue (NovaGen Inc., Madison, Wis.). E. coli N is a normal, β-lactam sensitive strain. E coli R(Tem1) is a β-lactam resistant strain with a β-lactamase gene on a plasmid. E. coli C(Tem4O-15) is a β-lactam resistant strain with a β-lactam inhibitor resistant β-lactamase gene, and E. coli C(Tem3 1-27) is β-lactam resistant strain with an alternative β-lactam inhibitor resistant β-lactamase gene.
(§5) The various E. coli strains were each treated with dilutions of the compounds of the invention. […] The number of viable cells at each time point was determined by measuring the OD600 of each cell sample.
(§6) After measuring the number of viable cells present, the IC50 for each sample was determined. […] In addition, both compounds were effective at inhibiting the growth of both antibiotic sensitive and resistant bacterial cells.

E coli R(Tem1) = test: Inhibition of bacterial growth (IC50, OD600); format: cell-based; settings: for IC50 ratio N/R: N versus R (Tem1); for IC50: Escherichia coli
Protocol: as §3, §4, §5, §6

E. coli N = test: Inhibition of bacterial growth (IC50, OD600); format: cell-based; settings: Escherichia coli
Protocol: as §3, §4, §5, §6

E. coli C(Tem4O-15) = test: Inhibition of bacterial growth (IC50, OD600); format: cell-based; settings: for IC50: Escherichia coli
Protocol: as §3, §4, §5, §6

[2] = system: S. aureus clinical isolates; test: MIC by agar dilution, recent clinical isolates (UCSD Medical Center); format: cell-based, Staphylococcus aureus; settings: MSSA (14)
Protocol: Growth of all 14 isolates of MSSA was inhibited by Compound (9) at the lowest tested concentration (0.08 μg/ml) (See Table 6, below).

[3] = E. aerogenes, E. cloacae and K. pneumoniae

O=C(Cc1cccs1)N[C@@H]1C(=O)N2C(C(=O)O)=C(COc3cc(Cl)ccc3Oc3ccc(Cl)cc3Cl)CS[C@H]12 [Compound 9, 3-(2-(2,4-Dichlorophenoxy)-5-chlorophenoxy)methyl-7-(2-thienylacetamido)-3-cephem-4-carboxylic acid]
MIC range (S. epidermidis; S. epidermidis (5)): 0.015 to 500 ng/mL
GM* MIC (geometric mean) (S. epidermidis; S. epidermidis (5), listed as Comp. (9)): <4 ng/mL
fold more active than vancomycin (S. epidermidis; S. epidermidis, geometric mean MIC): 435 fold
MIC (S. epidermidis; Staphylococcus epidermidis, S. epidermidis (5), read-out: GM* MIC (geometric mean)): 4 ng/mL (≈ 6.39 nM)
MIC range (M. catarrhalis): 0.015 to 31 ng/mL
MIC (M. catarrhalis; Moraxella catarrhalis, read-out: GM* MIC (geometric mean)): 0.18 ng/mL (≈ 0.288 nM)
MIC range (K. pneumoniae): 980 to 3910 ng/mL
MIC (K. pneumoniae; Klebsiella pneumoniae, read-out: GM* MIC (geometric mean)): 1960 ng/mL (≈ 3130 nM)
MIC range (S. pneumoniae): 60 to 500 ng/mL
MIC (S. pneumoniae; Streptococcus pneumoniae, read-out: GM* MIC (geometric mean)): 122 ng/mL (≈ 195 nM)
MIC range (H. influenzae): 7.5 to 61 ng/mL
MIC (H. influenzae; Haemophilus influenzae, read-out: GM* MIC (geometric mean)): 15 ng/mL (≈ 24 nM)
fold greater potency than vancomycin (Staphylococcus aureus; MRSA and vancomycin-resistant S. aureus): at least 85 fold
Geometric mean of MIC (Staphylococcus aureus; S. aureus β-lactamase negative (2), listed as Comp. 9): 1410 ng/mL
MIC (Staphylococcus aureus; ATCC11632, ATCC 11632, methicillin-sensitive, β-lactamase Neg./Pos., read-out: MIC): 0.015 ng/mL (≈ 0.024 nM)
MIC (Staphylococcus aureus; ATCC13301, ATCC 13301, methicillin-sensitive, β-lactamase Positive, read-out: MIC): 0.015 ng/mL (≈ 0.024 nM)
MIC (Staphylococcus aureus; ATCC14154, ATCC 14154, methicillin-sensitive, β-lactamase Positive, read-out: MIC): 0.015 ng/mL (≈ 0.024 nM)
MIC (Staphylococcus aureus; ATCC33591, ATCC 33591, methicillin-resistant, β-lactamase Positive, read-out: MIC): 0.03 ng/mL (≈ 0.0479 nM)
MIC (Staphylococcus aureus; ATCC33592, ATCC 33592, methicillin-sensitive, β-lactamase Positive, read-out: MIC): 0.015 ng/mL (≈ 0.024 nM)
MIC (Staphylococcus aureus; ATCC33593, ATCC 33593, methicillin-resistant, β-lactamase Positive, read-out: MIC): 0.015 ng/mL (≈ 0.024 nM)
MIC (Staphylococcus aureus; ATCC33594, ATCC 33594, methicillin-sensitive, β-lactamase Positive, read-out: MIC): 0.015 ng/mL (≈ 0.024 nM)
MIC (Staphylococcus aureus; ATCC43300, ATCC 43300, methicillin-sensitive, β-lactamase Neg./Pos., read-out: MIC): 0.06 ng/mL (≈ 0.0959 nM)
MIC (Staphylococcus aureus; ATCC700260, ATCC 700260, methicillin-sensitive, β-lactamase Positive, read-out: MIC): 0.015 ng/mL (≈ 0.024 nM)
MIC (Staphylococcus aureus; ATCC700698, ATCC 700698, methicillin-resistant, β-lactamase Negative, read-out: MIC): 1000 ng/mL (≈ 1600 nM)
MIC (Staphylococcus aureus; ATCC700699, ATCC 700699, methicillin-resistant, β-lactamase Negative, read-out: MIC): 2000 ng/mL (≈ 3200 nM)
MIC (Staphylococcus aureus; ATCC700787, ATCC 700787, methicillin-resistant, β-lactamase Positive, read-out: MIC): 1000 ng/mL (≈ 1600 nM)
MIC (Staphylococcus aureus; ATCC700788, ATCC 700788, methicillin-resistant, β-lactamase Positive, read-out: MIC): 250 ng/mL (≈ 399 nM)
MIC (Staphylococcus aureus; ATCC700789, ATCC 700789, methicillin-resistant, β-lactamase Positive, read-out: MIC): 31 ng/mL (≈ 49.5 nM)
MIC (Staphylococcus aureus; MRSA, MRSA tested (7), read-out: Geometric mean of MIC): 25 ng/mL (≈ 39.9 nM)
MIC (Staphylococcus aureus; MSSA, MSSA tested (7), read-out: Geometric mean of MIC): 0.018 ng/mL (≈ 0.0288 nM)
MIC (Staphylococcus aureus; S. aureus (14), read-out: Geometric mean of MIC): 1 ng/mL (≈ 1.6 nM)
MIC (Staphylococcus aureus; S. aureus β-lactamase negative (2), read-out: Geometric mean of MIC): 1570 ng/mL (≈ 2510 nM)
MIC (Staphylococcus aureus; S. aureus β-lactamase positive (12), read-out: Geometric mean of MIC): 0.19 ng/mL (≈ 0.304 nM)
fold less active than imipenem (Gram-negative species; [3]): 4 fold
fold more active than cephalothin or ampicillin (Gram-negative species; [3]): at least 33 fold
fold stronger than ampicillin and cephalothin (Gram-negative species; M. catarrhalis and H. influenzae, geometric mean MIC): at least 1000 fold
MIC range (E. cloacae): 1000 ng/mL (≈ 1600 nM)
MIC (E. cloacae; Enterobacter cloacae, read-out: GM* MIC (geometric mean)): 1000 ng/mL (≈ 1600 nM)
glucuronidation by human liver microsome [1]: not a substrate of UDP-glucuronosyltransferase
IC50 ratio (C/R or N/C) (E. coli C(Tem3 1-27); 10 hours, line of C (Tem31-27)): C/R = 90x
IC50 ratio (given C/R or N/R) (E. coli C(Tem3 1-27); 20 hours, line of C (Tem31-27)): C/R = 2x
IC50 (E. coli C(Tem3 1-27); 10 h, read-out: IC50 10 hours): 2.09 nM
IC50 (E. coli C(Tem3 1-27); 20 h, read-out: IC50 20 hours): 21 nM
IC50 ratio N/R (E coli R(Tem1); 10 hours): N/R = 1969x
IC50 ratio N/R (E coli R(Tem1); 20 hours): N/R = 10x
IC50 (E coli R(Tem1); 10 h, read-out: IC50 10 hours, Cell R (Tem1), 10 hours): 0.096 nM
IC50 (E coli R(Tem1); 20 h, read-out: IC50 20 hours, Cell R (Tem1), 20 hours): 4.13 nM
IC50 (E. coli N; 10 h, read-out: IC50 10 hours, Cell N, 10 hours, 37° C.): 189 nM
IC50 (E. coli N; 20 h, read-out: IC50 20 hours, Cell N, 20 hours): 42.4 nM
IC50 ratio (C/R or N/C) (E. coli C(Tem4O-15); 10 hours, line of C (Tem40-15)): C/R = 117x
IC50 ratio (given C/R or N/R) (E. coli C(Tem4O-15); 20 hours, line of C (Tem40-15)): C/R = 2.3x
IC50 (E. coli C(Tem4O-15); 10 h, read-out: IC50 10 hours): 1.62 nM
IC50 (E. coli C(Tem4O-15); 20 h, read-out: IC50 20 hours): 18.3 nM
MIC range [2]: ≤ 0.08 µg/mL
MIC range ([2]; listed as Comp. (9)): 0.08-0.08 μg/ml
MIC50 ([2]; Staphylococcus aureus): 80 ng/mL (≈ 128 nM)
MIC90 ([2]; Staphylococcus aureus): 80 ng/mL (≈ 128 nM)
